Data: PMC5312321, “A general strategy to optimize immunogenicity of HLA-B*0702 restricted cryptic peptides from tumor associated antigens: Design of universal neo-antigen like tumor vaccines for HLA-B*0702 positive patients” (Oncotarget, 2016)
“Also recorded” adds a separate entry of the source. Marks after values point to notes of the source that are not given here.

Key:
[1] = target: T1, HLA-B*0702 (Homo sapiens, UniProt P01889); experiment: Measurement of peptide relative affinity to HLA-B*0702 (surface expression on T2-B7 cells); format: cell-based; conditions: for RA (Relative Affinity): 37°C 16 hours, peptide 100 μM to 0.1 μM, ME-1 mAb staining, RA = concentration inducing 20% of HLA-B*0702 expression / that of reference R10V, mean ± SD, at least three experiments, ≥ 10 = 10 or not measurable; for binding to / affinity for HLA-B*0702 (in words): relative to reference peptide R10V
T1 construct: expressed in transfected cells; host or cells: human T2-B7 cells (T2 transfected with HLA-B*0702)
Method: The protocol used has been described previously. Briefly, T2-B7 cells were incubated at 37°C for 16 hours with peptides concentrations ranging from 100 μM to 0.1 μM (100 μM, 10 μM, 1 μM and 0.1μM), and then stained with ME-1 monoclonal antibody (mAb) to quantify the surface expression of HLA-B*0702. For each peptide concentration, the HLA-B*0702 specific staining was calculated as the percentage of staining obtained with 100 μM of the reference peptide CMV265–274 (R10V; […], SEQ ID NO: 9). The relative affinity (RA) was determined as: RA = (Concentration of each peptide that induces 20% of HLA-B*0702-expression/Concentration of the reference R10V peptide that induces 20% of HLA-B*0702 expression). In case of non-binders peptide, RA is not evaluable since the 20% of HLA-B*0702 expression is not reach even with the highest concentration of peptide.

[2] = system: HLA-B*0702 transgenic mice; experiment: Vaccination of HLA-B*0702 transgenic mice; specific CTLs detected by cytotoxicity or IFNγ ELISPOT; format: in vivo, mouse; conditions: for immunogenicity in HLA-B*0702 transgenic mice (in words): specific CTL induction after vaccination, cytotoxicity (ratio 30/1) or IFNγ ELISpot; for Immunogenicity (number of responding mice/number of vaccinated mice): native peptides, 100 μg peptide in IFA s.c. with HBVcore128 helper epitope, twice at two weeks interval
Method: The HLA-B7 H-2 class-I knockout mice were previously described.
Mice were injected subcutaneously with 100 μg of peptide emulsified in Incomplete Freund's Adjuvant (IFA) in the presence of 150 μg of the I-A^b restricted HBVcore128 T helper epitope ([…]) twice at two weeks interval.
A particular protocol was applied for MAGE-A 274L9, with two injections of this peptide at two weeks interval and 15 days later one injection with each one of the native peptide.
On day 6 of culture the bulk responder populations were tested for specific cytotoxicity. […] Percentage of specific lysis was determined as: % Lysis = (Experimental Release-Spontaneous Release) / (Maximal Release-Spontaneous Release) × 100. Spontaneous release is obtained using medium only, maximum release with HCl 0.1 M.
Seven days after the last vaccination, spleens were removed and T cells were isolated by Ficoll centrifugation and tested ex vivo for the recognition of 10 μM of either the native or optimized peptide. IFNγ producing T cells were quantified by ELISpot using the Diaclone Kit Murine IFNγ ELISpot (Besançon, France) according to manufacturer's recommendations. 250 000 spleen T cells were distributed per well and tested for the recognition of 10 μM of either the native or optimized peptide. Positive control was Concanavalin A and negative control was medium alone. All conditions were tested in sixplicates.

Sequence | RA (Relative Affinity) [1] | binding to / affinity for HLA-B*0702 (in words) [1] | immunogenicity in HLA-B*0702 transgenic mice (in words) [2] | Immunogenicity (number of responding mice/number of vaccinated mice) [2] | also measured
APLSLGLET [Hsp70_397, Hsp70 derived native cryptic peptide] | ≥ 10 | low affinity | only the high affinity TERT4 was immunogenic | – | –
APRCRAVRSL [TERT4, TERT derived peptide with complete consensus motif A1P2R3L9, control, dominant peptide] | – | strongly bind to HLA-B*0702; also recorded: strong affinity | immunogenic | – | RA (Relative Affinity) ([1]; SD): 0.74 ± 0.12
APRGVPQIEV [HSP70_466, HSP70 derived native peptide] | – | – | immunogenic | 3/3 | –
APRSLGLEL [Hsp70_397 R3L9, optimized Hsp70_397, arginine at position 3 and leucine at C-terminal position] | – | high HLA-B*0702 affinity | – | – | RA (Relative Affinity) ([1]; SD): 1 ± 0.6
APRSPLAPS [Her2/neu1069, Her2/neu derived native peptide] | – | – | immunogenic | 5/7 | –
APRTKAEML [MAGE-A1_121 A1R3, optimized MAGE-A1_121, alanine at position 1 and arginine at position 3] | – | high HLA-B*0702 affinity | – | – | RA (Relative Affinity) ([1]; SD): 2.36 ± 0.28
APVTKAEML [MAGE-A1_121 A1, MAGE-A1_121 with alanine at position 1] | ≥ 10 | fail to bind to HLA-B*0702 with high affinity | – | – | –
DPRRLVQLL [TERT444, TERT derived native cryptic peptide] | ≥ 10 | low affinity | only the high affinity TERT4 was immunogenic; also recorded: non-immunogenic | – | –
EPFTKAEML [MAGE-A2_121, MAGE-A derived native cryptic peptide] | ≥ 10 | low affinity | – | – | –
EPITKAEIL [MAGE-A4_121, MAGE-A derived native cryptic peptide] | ≥ 10 | low affinity | – | – | –
EPVTKAEML [MAGE-A1_121, MAGE-A derived native cryptic peptide] | ≥ 10 | low affinity | – | – | –
GPKHSDCLA [Her2/neu246, Her2/neu derived native peptide] | – | – | non immunogenic | 0/9 | –
GPRALAETS [MAGE-A1_267, native peptide shared by MAGE-A1 and MAGE-A4] | – | – | non immunogenic | 0/3 | –
GPRALIETS [MAGE-A2_274, native peptide shared by MAGE-A2 and MAGE-A6] | – | – | non immunogenic | 0/3 | –
GPRALVETS [MAGE-A3_274, native peptide shared by MAGE-A3 and MAGE-A12] | – | – | very weak immunogenicity; also recorded: very weakly immunogenic | 2/3* | –
SPKANKEIL [Her2/neu760, Her2/neu derived native peptide] | – | – | immunogenic | 4/9 | –
SPREGPLPA [Her2/neu1151, Her2/neu derived native peptide] | – | – | – | 1/3 | immunogenicity in HLA-B*0702 transgenic mice (in words) ([2]; listed as HER2/neu1151): immunogenic; immunogenicity in HLA-B*0702 transgenic mice (in words) ([2]; listed as HER-2/neu1151): very weakly immunogenic
SPRLQLSND [CEA188, CEA derived native peptide] | – | – | non immunogenic | 0/3 | –
